Measured values taken from patent US20240391931A1 (Bristol-Myers Squibb Company, priority 2021, published 2024).

How the values were obtained:
EGFR WT = target: T1, EGFR WT (Homo sapiens, UniProt P00533); test: Enzymatic assay EGFR WT (method c); type: biochemical; details: [EGFR WT]=2 nM, [ATP]=1 mM, [Peptide 22]=1 μM
T1 construct: purchased Thermo Fisher, Carlsbad, CA ERBB1 PR7295B
Procedure, shortened: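 Microfluidic mobility-shift kinase assay with Peptide 22 (1 μM) in HEPES pH 7.5, MnCl2, MgCl2, Tween 20, TCEP. HER2 WT 12.5 nM and HER2 YVMA 5 nM each used 25 μM ATP; EGFR WT 2 nM used 1 mM ATP. IC50 came from initial-velocity (0–3600 s) percent inhibition, fitted to a variable-slope model.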

[1] = target: T2, HER2 wildtype (WT) protein (Homo sapiens, UniProt P04626); test: HER2 signaling (pHER2 Tyr1248/total HER2 MSD) in BT474 cells; type: cell-based; details: 1.5 hr compound, 1% FBS
T2 construct: BT474 and N87 cell lines which endogenously overexpress the HER2 wildtype (WT) protein; endogenous in cells; host or cells: BT474, N87
Procedure, shortened: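 BT474, N87 (HER2 WT) and NCI-H1781 (HER2 G776delinsVC) cells were treated for 1.5 h at 37° C in 1% FBS medium with compound at 0.0005–1.1 μM. pHER2 Tyr1248 was measured by MSD on whole-cell lysates and normalized to total HER2 as % DMSO. EC50 came from a variable-slope sigmoidal fit.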

T1 sequence (P00533 25-1210): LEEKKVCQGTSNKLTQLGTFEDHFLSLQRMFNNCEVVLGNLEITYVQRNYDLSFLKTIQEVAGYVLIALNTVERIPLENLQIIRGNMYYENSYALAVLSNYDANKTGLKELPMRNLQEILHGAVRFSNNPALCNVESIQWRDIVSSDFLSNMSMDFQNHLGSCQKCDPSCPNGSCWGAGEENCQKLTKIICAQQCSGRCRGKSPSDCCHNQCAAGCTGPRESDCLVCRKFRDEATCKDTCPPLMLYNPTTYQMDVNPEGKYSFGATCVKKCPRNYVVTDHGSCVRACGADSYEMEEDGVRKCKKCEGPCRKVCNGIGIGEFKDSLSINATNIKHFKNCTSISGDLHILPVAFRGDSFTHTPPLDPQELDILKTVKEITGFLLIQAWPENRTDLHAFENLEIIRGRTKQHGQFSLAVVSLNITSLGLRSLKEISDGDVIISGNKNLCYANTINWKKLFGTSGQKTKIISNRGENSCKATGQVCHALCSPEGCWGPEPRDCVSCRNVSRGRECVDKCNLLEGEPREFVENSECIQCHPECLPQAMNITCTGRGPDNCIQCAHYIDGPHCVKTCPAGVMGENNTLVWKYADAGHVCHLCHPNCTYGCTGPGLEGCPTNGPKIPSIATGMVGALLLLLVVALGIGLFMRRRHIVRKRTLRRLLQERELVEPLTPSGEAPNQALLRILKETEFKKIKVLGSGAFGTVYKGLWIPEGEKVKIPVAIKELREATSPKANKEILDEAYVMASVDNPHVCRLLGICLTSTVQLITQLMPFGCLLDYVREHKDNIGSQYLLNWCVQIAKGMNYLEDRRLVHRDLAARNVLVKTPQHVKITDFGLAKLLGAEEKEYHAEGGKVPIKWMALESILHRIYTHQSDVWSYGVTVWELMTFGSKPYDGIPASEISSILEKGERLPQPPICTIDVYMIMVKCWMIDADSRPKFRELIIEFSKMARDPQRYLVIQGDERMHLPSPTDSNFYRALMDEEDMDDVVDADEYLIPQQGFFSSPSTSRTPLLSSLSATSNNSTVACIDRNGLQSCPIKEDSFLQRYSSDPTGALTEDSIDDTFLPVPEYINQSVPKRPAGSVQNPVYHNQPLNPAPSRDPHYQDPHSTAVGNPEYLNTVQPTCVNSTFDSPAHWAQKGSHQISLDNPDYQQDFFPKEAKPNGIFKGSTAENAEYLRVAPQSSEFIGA
T2 sequence (P04626 23-1255): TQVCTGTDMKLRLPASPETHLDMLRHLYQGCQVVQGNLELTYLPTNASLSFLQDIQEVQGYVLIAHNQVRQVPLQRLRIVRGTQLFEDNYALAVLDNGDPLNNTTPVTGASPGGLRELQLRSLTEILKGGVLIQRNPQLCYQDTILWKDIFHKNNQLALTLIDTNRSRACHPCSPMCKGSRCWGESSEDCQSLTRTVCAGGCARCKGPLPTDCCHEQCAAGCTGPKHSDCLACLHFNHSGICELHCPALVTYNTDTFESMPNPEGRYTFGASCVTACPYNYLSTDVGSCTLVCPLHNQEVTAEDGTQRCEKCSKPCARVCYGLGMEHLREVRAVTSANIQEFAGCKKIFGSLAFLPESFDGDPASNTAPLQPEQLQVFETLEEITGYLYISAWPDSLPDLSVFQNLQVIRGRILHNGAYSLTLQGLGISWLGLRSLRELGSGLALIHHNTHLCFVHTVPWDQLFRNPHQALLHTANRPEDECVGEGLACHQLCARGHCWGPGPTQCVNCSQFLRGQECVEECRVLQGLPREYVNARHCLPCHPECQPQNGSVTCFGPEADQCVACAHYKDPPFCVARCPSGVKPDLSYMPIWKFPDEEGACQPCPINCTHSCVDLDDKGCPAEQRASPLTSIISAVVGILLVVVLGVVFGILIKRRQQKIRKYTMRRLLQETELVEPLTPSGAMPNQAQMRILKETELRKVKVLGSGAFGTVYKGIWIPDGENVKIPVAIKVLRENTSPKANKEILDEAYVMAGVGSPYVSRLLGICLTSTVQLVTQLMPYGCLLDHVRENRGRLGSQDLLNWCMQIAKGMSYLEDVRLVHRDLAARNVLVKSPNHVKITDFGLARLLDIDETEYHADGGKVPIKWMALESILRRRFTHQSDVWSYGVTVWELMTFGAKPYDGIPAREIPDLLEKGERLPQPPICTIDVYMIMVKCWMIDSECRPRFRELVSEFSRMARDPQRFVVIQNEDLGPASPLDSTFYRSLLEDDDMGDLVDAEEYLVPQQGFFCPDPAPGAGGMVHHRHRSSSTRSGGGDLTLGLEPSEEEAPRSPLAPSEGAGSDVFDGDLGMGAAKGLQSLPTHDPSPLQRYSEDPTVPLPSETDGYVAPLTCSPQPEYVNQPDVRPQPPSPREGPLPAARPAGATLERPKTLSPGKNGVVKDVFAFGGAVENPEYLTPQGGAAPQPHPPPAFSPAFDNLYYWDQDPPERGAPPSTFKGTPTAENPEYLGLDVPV

SMILES	IC50 (EGFR WT) [nM]	EC50 [1] [nM]
Cc1ccc(Oc2ccc(Nc3ncnc4sc5c(c34)CCN(C(=O)/C=C/CNC3CCC(C(=O)N(C)C)CC3)C5)cc2C)cn1 (stereo not shown) [Compound 71]	1000 to 10000	< 100
Cc1ccc(Oc2ccc(Nc3ncnc4sc5c(c34)CCN(C(=O)/C=C/CNC34CCC(C#N)(CC3)CC4)C5)cc2C)cn1 [Compound 72]	1000 to 10000	< 100
Cc1ccc(Oc2ccc(Nc3ncnc4sc5c(c34)CCN(C(=O)/C=C/CN[C@H]3CCC[C@H](O)C3)C5)cc2C)cn1 [Compound 73]	1000 to 10000	< 100
Cc1ccc(Oc2ccc(Nc3ncnc4sc5c(c34)CCN(C(=O)/C=C/CN3CCC(O)C3)C5)cc2C)cn1 (stereo not shown) [Compound 74]	1000 to 10000	< 100
Cc1ccc(Oc2ccc(Nc3ncnc4sc5c(c34)CCN(C(=O)/C=C/CN[C@@H](C)CO)C5)cc2C)cn1 [Compound 75]	1000 to 10000	< 100
Cc1ccc(Oc2ccc(Nc3ncnc4sc5c(c34)CCN(C(=O)/C=C/CN3CC4CC4C3)C5)cc2C)cn1 (stereo not shown) [Compound 76]	1000 to 10000	< 100
Cc1cc(Nc2ncnc3sc4c(c23)CCN(C(=O)/C=C/CN2CC3CC2CO3)C4)ccc1Oc1ccc2ncnn2c1 (stereo not shown) [Compound 77]	> 10000	< 100
Cc1cc(Nc2ncnc3sc4c(c23)CCN(C(=O)/C=C/CN(C)C(C)(C)C)C4)ccc1Oc1ccc2ncnn2c1 [Compound 80]	> 10000	< 100
Cc1cc(Nc2ncnc3sc4c(c23)CCN(C(=O)/C=C/CN2CC3C(CO)C3C2)C4)ccc1Oc1ccc2ncnn2c1 (stereo not shown) [Compound 81]	> 10000	< 100
Cc1cc(Nc2ncnc3sc4c(c23)CCN(C(=O)/C=C/CN2CC3CC(C3)C2)C4)ccc1Oc1ccc2ncnn2c1 [Compound 82]	> 10000	< 100
Cc1cc(Nc2ncnc3sc4c(c23)CCN(C(=O)/C=C/CN2CC(C)OC(C)C2C)C4)ccc1Oc1ccc2ncnn2c1 (stereo not shown) [Compound 83]	> 10000	< 100
Cc1cc(Nc2ncnc3sc4c(c23)CCN(C(=O)/C=C/CN2CC(C)(C)OC(C)(C)C2)C4)ccc1Oc1ccc2ncnn2c1 [Compound 84]	> 10000	< 100
O=C(/C=C/CN1CC2CC(C2)C1)N1CCc2c(sc3ncnc(Nc4ccc(Oc5ccc6ncnn6c5)c(Cl)c4)c23)C1 [Compound 85]	1000 to 10000	< 100
C=C(CN1CCc2c(sc3ncnc(Nc4ccc(Oc5ccc(C)nc5)c(C)c4)c23)C1)C(=O)OCC [Compound 86, Ethyl 2-((4-((3-methyl-4-((6-methylpyridin-3-yl)oxy)phenyl)amino)-5,8-dihydropyrido[4′,3′:4,5]thieno[2,3-d]pyrimidin-7(6H)-yl)methyl)acrylate]	> 10000	100 to 350
O=C(/C=C/CN1CC2CC1CO2)N1CCc2c(sc3ncnc(Nc4ccc(Oc5ccc6ncnn6c5)c(Cl)c4)c23)C1 (stereo not shown) [Compound 87]	1000 to 10000	< 100
O=C(/C=C/CN1CC2CCC(C2)C1)N1CCc2c(sc3ncnc(Nc4ccc(Oc5ccc6ncnn6c5)c(Cl)c4)c23)C1 [Compound 88]	> 10000	< 100
CN(C/C=C/C(=O)N1CCc2c(sc3ncnc(Nc4ccc(Oc5ccc6ncnn6c5)c(Cl)c4)c23)C1)C(C)(C)C [Compound 91]	> 10000	< 100
O=C(/C=C/CN1CC2C(CO)C2C1)N1CCc2c(sc3ncnc(Nc4ccc(Oc5ccc6ncnn6c5)c(Cl)c4)c23)C1 (stereo not shown) [Compound 92]	> 10000	< 100
C=CC(=O)N1CCc2[nH]c3ncnc(Nc4ccc(Oc5ccc(C)nc5)c(C)c4)c3c2C1 [Compound 94, 1-(4-((3-methyl-4-((6-methylpyridin-3-yl)oxy)phenyl)amino)-7,8-dihydro-5H-pyrido[3′,4′:4,5]pyrrolo[2,3-d]pyrimidin-6(9H)-yl)prop-2-en-1-one]	> 10000	< 100
COc1ccc(Oc2ccc(Nc3ncnc4sc5c(c34)CCN(C(=O)/C=C/CN(C)C)C5)cc2C)cn1 [Compound 95, (E)-4-(Dimethylamino)-1-(4-((4-((6-methoxypyridin-3-yl)oxy)-3-methylphenyl)amino)-5,6-dihydropyrido[4′,3′:4,5]thieno[2,3-d]pyrimidin-7(8H)-yl)but-2-en-1-one]	> 10000	< 100
CCOC/C=C/C(=O)N1CCc2c(sc3ncnc(Nc4ccc(Oc5ccc(C)nc5)c(C)c4)c23)C1 [Compound 96, (E)-4-ethoxy-1-(4-((3-methyl-4-((6-methylpyridin-3-yl)oxy)phenyl)amino)-5,8-dihydropyrido[4′,3′:4,5]thieno[2,3-d]pyrimidin-7(6H)-yl)but-2-en-1-one]	> 10000	< 100
Cc1ccc(Oc2ccc(Nc3ncnc4[nH]c5c(c34)CN(C(=O)/C=C/CN(C)C)CC5)cc2C)cn1 [Compound 97, (E)-4-(dimethylamino)-1-(4-((3-methyl-4-((6-methylpyridin-3-yl)oxy)phenyl)amino)-5,7,8,9-tetrahydro-6H-pyrido[3′,4′:4,5]pyrrolo[2,3-d]pyrimidin-6-yl)but-2-en-1-one]	> 10000	< 100
Cc1ccc(Oc2ccc(Nc3ncnc4sc5c(c34)C(C)CN(C(=O)/C=C/CN(C)C)C5)cc2C)cn1 (stereo not shown) [Compound 98, (E)-4-(dimethylamino)-1-(5-methyl-4-((3-methyl-4-((6-methylpyridin-3-yl)oxy)phenyl)amino)-5,8-dihydropyrido[4′,3′:4,5]thieno[2,3-d]pyrimidin-7(6H)-yl)but-2-en-1-one]	> 10000	< 100
Cc1ccc(Oc2ccc(Nc3ncnc4sc5c(c34)CN(C(=O)/C=C/CN(C)C)C5)cc2C)cn1 [Compound 99, (E)-4-(dimethylamino)-1-(4-((3-methyl-4-((6-methylpyridin-3-yl)oxy)phenyl)amino)-5,7-dihydro-6H-pyrrolo[3′,4′:4,5]thieno[2,3-d]pyrimidin-6-yl)but-2-en-1-one]	> 10000	< 100
Cc1ccc(Oc2ccc(Nc3ncnc4sc5c(c34)CCN(C(=O)/C=C/CN(C)C)CC5)cc2C)cn1 [Compound 100, (E)-4-(dimethylamino)-1-(4-((3-methyl-4-((6-methylpyridin-3-yl)oxy)phenyl)amino)-8,9-dihydro-5H-pyrimido[5′,4′:4,5]thieno[2,3-d]azepin-7(6H)-yl)but-2-en-1-one]	> 10000	< 100
Cc1ccc(Oc2ccc(Nc3ncnc4sc5c(c34)CCCN(C(=O)/C=C/CN(C)C)C5)cc2C)cn1 [Compound 101, (E)-4-(Dimethylamino)-1-(4-((3-methyl-4-((6-methylpyridin-3-yl)oxy)phenyl)amino)-6,7-dihydro-5H-pyrimido[5′,4′:4,5]thieno[2,3-c]azepin-8(9H)-yl)but-2-en-1-one]	> 10000	< 100
C=CC(=O)N1CCc2[nH]c3ncnc(Nc4ccc(Oc5ccc6ncnn6c5)c(C)c4)c3c2C1 [Compound 102, 1-(4-((4-([1,2,4]triazolo[1,5-a]pyridin-6-yloxy)-3-methylphenyl)amino)-5,7,8,9-tetrahydro-6H-pyrido[3′,4′:4,5]pyrrolo[2,3-d]pyrimidin-6-yl)prop-2-en-1-one]	> 10000	< 100
Cc1cc(Nc2ncnc3sc4c(c23)CN(C(=O)/C=C/CN(C)C)CC4)ccc1Oc1ccc2ncnn2c1 [Compound 103, (E)-1-(4-((4-([1,2,4]triazolo[1,5-a]pyridin-6-yloxy)-3-methylphenyl)amino)-7,8-dihydropyrido[3′,4′:4,5]thieno[2,3-d]pyrimidin-6(5H)-yl)-4-(dimethylamino)but-2-en-1-one]	> 10000	< 100
Cc1cc(Nc2ncnc3sc4c(c23)CCN(C(=O)/C=C/CN(C)C)C4)ccc1Oc1ccc2nonc2c1 [Compound 104, (E)-1-(4-((4-(Benzo[c][1,2,5]oxadiazol-5-yloxy)-3-methylphenyl)amino)-5,6-dihydropyrido[4′,3′:4,5]thieno[2,3-d]pyrimidin-7(8H)-yl)-4-(dimethylamino)but-2-en-1-one]	> 10000	< 100
